In data set [1] the test system is passive cutaneous anaphylactic reaction. In words: Passive cutaneous anaphylactic reaction test in rats (intravenous). The format is in vivo. The settings on record: relative to reference compound RCA (= 1). The source says: A.1. Passive cutaneous anaphylactic reaction test in rats (intravenous)
The test system is the same in data set [2]. The experiment in a line: Passive cutaneous anaphylactic reaction test in rats (oral). It is filed as in vivo. The conditions noted are these: for oral activity relative to reference compounds RCB and RCC: times as active as RCB and RCC. From the text: A.2. Passive cutaneous anaphylactic reaction test in rats (oral)
Data set [3] can be described thus: Acute intravenous toxicity in mice. The settings on record: mouse, in vivo, triethanolamine salt, aqueous solution, observed 7 days. As for the experimental part:
T.2. Acute intravenous toxicity in mice
Mice were each treated intravenously with an aqueous solution of the triethanolamine salt of one of the compounds of formula IV, and they were observed during the next 7 days. The LD50 figures obtained (doses lethal to 50% of mice tested) are shown below in Table III, expressed in mg/kg animal body weight.
The aqueous solutions used were prepared as follows:- A mixture of the test compound and water was treated gradually with triethanolamine until complete solution occurred. The solution was then diluted with water to a concentration of either 1% w/v or 2% w/v. Various volumes of these solutions were then administered to the mice.

Data set [4] deals with beagle dogs. The experiment in a line: Emetic activity in dogs. The conditions noted are these: four beagle dogs, oral gelatine capsules, observed at least 2.5 hours. It is filed as in vivo. From the text:
The emetic activity in dogs of test compound A was compared with that of the reference compound RCA.
Four beagle dogs, each of approximately 12 kg body weight, were starved overnight and then were given orally gelatine capsules containing either test compound A or RCA.
The same four animals were used to test both compounds.

The nature of data set [5]: Acute oral toxicity in mice. The settings on record: mouse, in vivo, observed 3 days. The source says:
T.1. Acute oral toxicity in mice
Mice were each treated orally with one of the compounds of formula IV, and they were observed during the next 3 days. The LD50 figures obtained (doses lethal to 50% of mice tested) are shown in Table II, expressed in mg/kg animal body weight.

Structures are written as SMILES. Some results are limits rather than exact numbers.

As to `CCCOc1ccc(NC=C(C#N)C(=O)OCC)cc1-c1nc2[nH]nnc2c(=O)[nH]1` [C, 2-[5-(2-cyano-2-ethoxycarbonylvinylamino)-2-propoxyphenyl]-8-azapurin-6-one], in data set [1], the “Relative Activity” value worked out at 10. In addition, the “oral activity relative to reference compounds RCB and RCC” value in data set [2] is recorded as “over 2.5 times”. Moreover, the LD50 at 168 h in data set [3] (test solution 2% w/v) is 290 mg/kg.

For the compound `CCCOc1ccc(NC=C(C(=O)OCC)C(=O)OCC)cc1-c1nc2[nH]nnc2c(=O)[nH]1` [Compound A, 2-[5-{2,2-bis(ethoxycarbonyl)vinylamino}-2-propoxyphenyl]-8-azapurin-6-one], the “Relative Activity” value in data set [1] is listed as 5. Also, in data set [2], the “oral activity relative to reference compounds RCB and RCC” value is given as “over 5 times”. In addition, in data set [4] (200 mg/kg), the “vomiting (emetic activity)” value is listed as “caused vomiting in none of the four dogs”.

For `CCCOc1ccc(NC=C(C(C)=O)C(C)=O)cc1-c1nc2[nH]nnc2c(=O)[nH]1` [Compound B, 2-[5-(2,2-diacetylvinylamino)-2-propoxyphenyl]-8-azapurin-6-one], in data set [1], the “Relative Activity” value stood at 50. The LD50 at 168 h in data set [3] (test solution 1% w/v) stood at 350 mg/kg.

For the compound `CCOC(=O)C(=CNc1ccc(OC)c(-c2nc3[nH]nnc3c(=O)[nH]2)c1)C(=O)OCC` [Compound E, 2-[5-{2,2-bis(ethoxycarbonyl)vinylamino}-2-methoxyphenyl]-8-azapurin-6-one], the “Relative Activity” value in data set [1] stood at 5. The compound further came in with an LD50 at 72 h in data set [5] of over 1000 mg/kg. The LD50 at 168 h in data set [3] (test solution 1% w/v) amounted to 320 mg/kg.

For `CCCOc1ccc(NC=C(C(=O)OC)C(=O)OC)cc1-c1nc2[nH]nnc2c(=O)[nH]1` [Compound G, 2-[5-{2,2-bis(methoxycarbonyl)vinylamino}-2-propoxyphenyl]-8-azapurin-6-one], the “Relative Activity” value in data set [1] was determined as 50. In addition, the LD50 at 168 h in data set [3] (test solution 2% w/v) came to 280 mg/kg.

Consider `CCCOc1ccc(N/C(=C\C(=O)OC)C(=O)OC)cc1-c1nc2[nH]nnc2c(=O)[nH]1` [Compound H, (Z)-2-[5-{1,2-bis(methoxycarbonyl)vinylamino}-2-propoxyphenyl]-8-azapurin-6-one], for which the “Relative Activity” value in data set [1] is 15. The LD50 at 168 h in data set [3] (test solution 2% w/v) is 410 mg/kg.

On to `COc1ccc(NC(C)=CC(C)=O)cc1-c1nc2[nH]nnc2c(=O)[nH]1` [Compound I, 2-[5-(1-acetylprop-1-en-2-ylamino)-2-methoxyphenyl]-8-azapurin-6-one], for which the “Relative Activity” value in data set [1] stood at 5. In data set [3] (test solution 1% w/v), the LD50 at 168 h is 470 mg/kg.

As for `CCCOc1ccc(C#N)cc1-c1nc2[nH]nnc2c(=O)[nH]1` [Compound L, 2-(5-cyano-2-propoxyphenyl)-8-azapurin-6-one], the “Relative Activity” value in data set [1] came out at 1.

Turning to `CCCOc1ccc(C(N)=O)cc1-c1nc2[nH]nnc2c(=O)[nH]1` [Compound M, 2-(5-carbamoyl-2-propoxyphenyl)-8-azapurin-6-one], the “Relative Activity” value in data set [1] is 10.

Turning to `CCCOc1ccc(C(=O)NC(C)(C)C)cc1-c1nc2[nH]nnc2c(=O)[nH]1` [Compound N, 2-(5-N-t-butylcarbamoyl-2-propoxyphenyl)-8-azapurin-6-one], in data set [1], the “Relative Activity” value was 50. The compound also showed an LD50 at 72 h in data set [5] of over 1000 mg/kg.

Regarding `CCCOc1ccc(NC(=O)NC(C)C)cc1-c1nc2[nH]nnc2c(=O)[nH]1` [Compound O, 2-[2-propoxy-5-(3-isopropylureido)phenyl]-8-azapurin-6-one], in data set [1], the “Relative Activity” value is on record as 30. Also, the LD50 at 72 h in data set [5] is over 1000 mg/kg.

Consider `CCCNC(=O)Nc1ccc(OCCC)c(-c2nc3[nH]nnc3c(=O)[nH]2)c1` [Compound P, 2-[2-propoxy-5-(3-propylureido)phenyl]-8-azapurin-6-one], for which, in data set [1], the “Relative Activity” value was 2.

With `CCCOc1ccc(NC(=S)NC)cc1-c1nc2[nH]nnc2c(=O)[nH]1` [Compound Q, 2-[5-(3-methyl-2-thioureido)-2-propoxyphenyl]-8-azapurin-6-one], the “Relative Activity” value in data set [1] amounted to 10.

In the case of `CCCNC(=S)Nc1ccc(OCCC)c(-c2nc3[nH]nnc3c(=O)[nH]2)c1` [Compound R, 2-[2-propoxy-5-(3-propyl-2-thioureido)phenyl]-8-azapurin-6-one], the “Relative Activity” value in data set [1] was 0.2. Moreover, the LD50 at 72 h in data set [5] is over 1000 mg/kg.

For the compound `CCCOc1ccc(NC(N)=O)cc1-c1nc2[nH]nnc2c(=O)[nH]1` [Compound S, 2-(2-propoxy-5-ureidophenyl)-8-azapurin-6-one], the “Relative Activity” value in data set [1] came out at 5.

Regarding `CCCOc1ccc(-c2nnn[nH]2)cc1-c1nc2[nH]nnc2c(=O)[nH]1` [Compound T, 2-[2-propoxy-5-(tetrazol-5-yl)phenyl]-8-azapurin-6-one], the “Relative Activity” value in data set [1] is 2.

`CCCOc1ccc(NC2=C(C(=O)OCC)CCC2)cc1-c1nc2[nH]nnc2c(=O)[nH]1` [Compound U, 2-[5-(2-ethoxycarbonylcyclopent-1-enylamino)-2-propoxyphenyl]-8-azapurin-6-one]: the “Relative Activity” value in data set [1] was found to be 5. The LD50 at 168 h in data set [3] (test solution 2% w/v) turned out to be 220 mg/kg.

With `CCCOc1ccc(C(=O)N(CC)CC)cc1-c1nc2[nH]nnc2c(=O)[nH]1` [Compound V, 2-(5-N,N-diethylcarbamoyl-2-propoxyphenyl)-8-azapurin-6-one], in data set [1], the “Relative Activity” value amounted to 3.

Regarding `CCCOc1ccc(NC=C(C(C)=O)C(=O)OCC)cc1-c1nc2[nH]nnc2c(=O)[nH]1` [D, 2-[5-(2-acetyl-2-ethoxycarbonylvinylamino)-2-propoxyphenyl]-8-azapurin-6-one], in data set [1], the “Relative Activity” value came to 10. Further, the LD50 at 168 h in data set [3] (test solution 2% w/v) came out at 270 mg/kg.

For the compound `COc1ccc(NC=C(C(C)=O)C(C)=O)cc1-c1nc2[nH]nnc2c(=O)[nH]1` [F, 2-[5-(2,2-diacetylvinylamino)-2-methoxyphenyl]-8-azapurin-6-one], the “Relative Activity” value in data set [1] is given as 5.

`CCCOc1ccc(N=NC(C(C)=O)C(C)=O)cc1-c1nc2[nH]nnc2c(=O)[nH]1` [J, 2-[5-(2,4-dioxopent-3-ylazo)-2-propoxyphenyl]-8-azapurin-6-one]: the “Relative Activity” value in data set [1] was 10. The compound further had an LD50 at 72 h in data set [5] of over 1000 mg/kg.

For the compound `CCCOc1ccc(N=NC(C(=O)OCC)C(=O)OCC)cc1-c1nc2[nH]nnc2c(=O)[nH]1` [K, 2-[5-{bis(ethoxycarbonyl)methylazo}-2-propoxyphenyl]-8-azapurin-6-one], in data set [1], the “Relative Activity” value turned out to be 2.5. The LD50 at 168 h in data set [3] (test solution 2% w/v) came out at 255 mg/kg.

Take `CCCOc1ccccc1-c1nc2nn[nH]c2c(=O)[nH]1` [RCA, 2-(2-propoxyphenyl)-8-azapurin-6-one, reference compound]: the “Relative Activity” value in data set [1] worked out at 1. Further, in data set [4] (100 mg/kg), the “vomiting (emetic activity)” value was “caused vomiting in all four dogs”.

`CCCOc1ccc(S(=O)(=O)N(C)C(C)C)cc1-c1nc2[nH]nnc2c(=O)[nH]1` [RCB, 2-[2-propoxy-5-(N-methyl-N-isopropylsulphamoyl)-phenyl]-8-azapurin-6-one, reference compound]: in data set [2], the “oral activity of RCB and RCC compared with each other” value is recorded as “approximately equiactive orally”.

Turning to `CCCOc1ccc(S(=O)(=O)CCC)cc1-c1nc2[nH]nnc2c(=O)[nH]1` [RCC, 2-(2-propoxy-5-propylsulphonylphenyl)-8-azapurin-6-one, reference compound], in data set [2], the “oral activity of RCB and RCC compared with each other” value is listed as “approximately equiactive orally”.

Consider `CCCOc1ccc(C(=O)N(C)C(C)C)cc1-c1nc2[nH]nnc2c(=O)[nH]1` [W, 2-(5-N-methyl-N-isopropylcarbamoyl-2-propoxyphenyl)-8-azapurin-6-one], for which the “Relative Activity” value in data set [1] is reported as 5.

The values above are taken from patent publication US4167568A, “8-Azapurin-6-one derivatives” (May & Baker Limited, priority 1976, dated 1979).
